In test [1] the target is T1, CDK1/Cyclin B (Homo sapiens, UniProt P06493).
T1 construct: purchased Invitrogen PR4768C
Put plainly: Enzymatic assay for CDK1 (FRET based LANCE Ultra kinase assay). The class given is biochemical. The procedure, abridged: (§1)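 TR-FRET (LANCE Ultra) kinase assay at ATP Km, ULight-MBP peptide substrate (68 nM), 8-dose 4-fold compound series in DMSO. Enzymes: […]; 60 min at 23° C., stopped with EDTA plus Eu-anti-phospho-MBP antibody, read 665/615 nm after 60 min.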
On the technique in general: Time-resolved FRET reads energy transfer from a long-lived donor to a nearby acceptor.

In test [2] the target is T2, CDK2/Cyclin A (Homo sapiens, UniProt P24941).
T2 construct: purchased Invitrogen PV6290
Put plainly: Enzymatic assay for CDK2 (FRET based LANCE Ultra kinase assay). The class given is biochemical. A digest of the protocol:
as §1

For test [3], the target named is T3, CDK5/p25 (Homo sapiens, UniProt Q00535).
T3 construct: purchased Invitrogen PR8543B
Put plainly: Enzymatic assay for CDK5 (FRET based LANCE Ultra kinase assay). The class given is biochemical. A digest of the protocol:
as §1

The target in test [4] is T4, CDK7/Cyclin H/MNAT1 (Homo sapiens, UniProt P50613).
T4 construct: purchased Invitrogen PR6749B
Put plainly: Enzymatic assay for CDK7 (FRET based LANCE Ultra kinase assay). The class given is biochemical. A digest of the protocol:
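Inhibition was measured at Km ATP by time-resolved FRET between a Eu anti-phospho antibody and a phosphorylated ULight peptide. The enzyme was the purified CDK7/cyclin complex, and data were curve-fitted.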

The test system of test [5] is HCT116. Put plainly: Cellular HCT116 viability assay (CellTiter-Glo, 72 hours). To be noted: Homo sapiens, HCT-116. The class given is cell-based. A digest of the protocol: (§2)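 Luminescent ATP read-out (CellTiter-Glo) after 72 h compound exposure at 37 °C/5% CO2; duplicate wells; vehicle control DMSO <0.1% final; seeding density set per cell line.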
A general note: In ATP-based viability assays light output follows the ATP content of the culture.

For test [6], the system named is H460. Put plainly: Cellular H460 viability assay (CellTiter-Glo, 72 hours). The class given is cell-based. The following applies: Homo sapiens, NCI-H460. A digest of the protocol:
as §2

The test system of test [7] is MV4-11. Put plainly: Cellular MV4-11 viability assay (CellTiter-Glo, 72 hours). The class given is cell-based. To be noted: Homo sapiens. A digest of the protocol: as §2
In test [8] the test system is A2780. In words: Cellular A2780 viability assay (CellTiter-Glo, 72 hours). The class given is cell-based. To be noted: Homo sapiens. An excerpt: Human T-cell acute lymphoblastic leukemia cell line, MOLT-4 (ATCC, Cat #CRL-1582), Human multiple myeloma cell line, RPMI-8226 (Invitrogen, Cat #22400-089) and MM.1S (ATCC, Cat #CRL-2974), NSCLC (Non-small cell lung cancer) cell line H460 (ATCC, Cat #HTB-177), Human colon colorectal carcinoma cell line HCT116 (ATCC, Cat #CCL-247), Human acute monocytic leukemia cell line MV4-11 (ATCC, Cat #CRL-9591), OVCAR-3 (ATCC, Cat #HTB-161) and A2780 (ECACC, Cat #93112519) were obtained from ATCC. Cells were grown in RPMI-1640 media (Invitrogen, Cat #22400-089) supplemented with 10% FBS (Invitrogen, Cat #10099141) and 1% penicillin/streptomycin (Invitrogen, Cat #15070063) and cultured at 37° C., 5% CO2 in a humidified chamber. All cell lines were routinely tested for mycoplasma.
The effect of the CDK7 inhibitor to inhibit the growth of target cancer cells was evaluated through the 72 hours time period of viability assay. Briefly, the candidate cell line ware plated in 96 well plate at the following density of cells respectively. 1×10^4 cells/well for MOLT-4, RPMI-8226, MV4-11 and MM.1S, 5×10^3 for H460, HCT116 and OVCAR-3 and IX 10^3 for A2780. After 24 hours, the cells were treated with various concentrations of the compound (ranging from 0.0015 uM to 10 uM). DMSO solvent without compound served as a control and final DMSO concentration less than 0.1%. After 72 hours of incubation at 37° C., 5% CO2 incubator, cells were analyzed for the viability using the CellTiter-Glo Luminescent Cell Viability Assay (Promega, Cat #G7570). All viability assays were performed in duplicate and Luminescence was read using an Envision (Perkin Elmer, USA). Data was analyzed using XLfit software.

The mark [9] stands for this setting: read-out: CDK1 enzymatic activity (IC50 range).
[10] abbreviates: read-out: CDK2 enzymatic activity (IC50 range).
The mark [11] stands for this setting: read-out: CDK5 enzymatic activity (IC50 range).
[12] abbreviates: read-out: CDK7 enzymatic activity (IC50 range).
Where [13] appears, read: read-out: CDK1 enzymatic activity (IC50 activity range).
[14] abbreviates: read-out: CDK2 enzymatic activity (IC50 activity range).
[15] abbreviates: read-out: CDK5 enzymatic activity (IC50 activity range).
Where [16] appears, read: read-out: CDK7 enzymatic activity (IC50 activity range).

Where two headings read alike, the source gives them in different places. Where only a bound is given, the exact number is not on record here.

For orientation: IC50 means the concentration at which inhibition is half-maximal.

T4 sequence (P50613 whole entry): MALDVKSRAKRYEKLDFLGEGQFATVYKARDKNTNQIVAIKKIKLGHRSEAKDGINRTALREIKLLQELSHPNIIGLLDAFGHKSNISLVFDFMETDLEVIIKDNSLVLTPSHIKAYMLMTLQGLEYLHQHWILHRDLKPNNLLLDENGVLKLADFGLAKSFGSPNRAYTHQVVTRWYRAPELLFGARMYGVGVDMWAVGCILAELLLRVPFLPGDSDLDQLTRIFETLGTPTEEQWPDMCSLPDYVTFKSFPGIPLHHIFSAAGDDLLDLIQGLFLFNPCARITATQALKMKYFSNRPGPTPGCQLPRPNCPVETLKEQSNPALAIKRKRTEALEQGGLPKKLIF
T4 sequence (P51946 whole entry partner): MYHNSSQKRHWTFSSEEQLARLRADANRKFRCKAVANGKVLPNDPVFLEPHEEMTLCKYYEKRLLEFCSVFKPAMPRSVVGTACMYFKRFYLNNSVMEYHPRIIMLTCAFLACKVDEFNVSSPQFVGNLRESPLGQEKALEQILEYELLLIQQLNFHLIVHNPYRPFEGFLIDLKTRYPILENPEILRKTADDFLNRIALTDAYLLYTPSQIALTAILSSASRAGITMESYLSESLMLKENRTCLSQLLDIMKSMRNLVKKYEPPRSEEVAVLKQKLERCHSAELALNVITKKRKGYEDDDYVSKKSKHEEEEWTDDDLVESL
T4 sequence (P51948 whole entry partner): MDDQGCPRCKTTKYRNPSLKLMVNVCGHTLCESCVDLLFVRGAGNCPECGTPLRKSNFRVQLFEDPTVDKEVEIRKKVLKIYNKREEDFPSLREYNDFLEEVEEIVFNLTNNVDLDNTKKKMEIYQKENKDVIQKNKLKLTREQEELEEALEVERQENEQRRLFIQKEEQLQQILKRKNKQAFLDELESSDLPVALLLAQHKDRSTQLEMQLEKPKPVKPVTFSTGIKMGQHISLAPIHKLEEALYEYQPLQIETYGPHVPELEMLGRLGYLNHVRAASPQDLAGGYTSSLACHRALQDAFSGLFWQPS
T3 sequence (Q00535 whole entry): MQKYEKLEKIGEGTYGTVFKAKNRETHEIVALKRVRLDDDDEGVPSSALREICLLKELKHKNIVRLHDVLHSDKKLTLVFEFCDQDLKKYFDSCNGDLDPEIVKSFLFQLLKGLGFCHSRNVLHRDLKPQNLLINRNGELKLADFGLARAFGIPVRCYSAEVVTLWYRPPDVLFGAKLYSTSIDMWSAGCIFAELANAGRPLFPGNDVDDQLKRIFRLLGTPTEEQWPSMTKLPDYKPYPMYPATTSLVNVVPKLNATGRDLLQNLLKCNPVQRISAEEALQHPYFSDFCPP
T3 sequence (Q15078 99-307 partner limits assumed): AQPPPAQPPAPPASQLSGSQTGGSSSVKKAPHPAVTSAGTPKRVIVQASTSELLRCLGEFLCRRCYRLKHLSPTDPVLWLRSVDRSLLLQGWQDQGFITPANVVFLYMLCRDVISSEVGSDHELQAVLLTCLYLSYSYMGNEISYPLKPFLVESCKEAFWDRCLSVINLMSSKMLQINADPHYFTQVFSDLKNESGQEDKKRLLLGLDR
T1 sequence (P06493 whole entry): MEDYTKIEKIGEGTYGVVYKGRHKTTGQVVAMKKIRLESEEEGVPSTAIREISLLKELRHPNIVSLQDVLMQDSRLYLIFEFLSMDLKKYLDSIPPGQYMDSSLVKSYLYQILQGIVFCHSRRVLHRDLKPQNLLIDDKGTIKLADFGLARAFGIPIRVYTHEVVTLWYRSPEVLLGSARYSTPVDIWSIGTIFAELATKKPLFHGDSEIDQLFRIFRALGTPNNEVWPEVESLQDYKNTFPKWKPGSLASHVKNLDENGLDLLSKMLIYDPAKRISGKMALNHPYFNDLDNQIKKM
T1 sequence (P14635 whole entry partner): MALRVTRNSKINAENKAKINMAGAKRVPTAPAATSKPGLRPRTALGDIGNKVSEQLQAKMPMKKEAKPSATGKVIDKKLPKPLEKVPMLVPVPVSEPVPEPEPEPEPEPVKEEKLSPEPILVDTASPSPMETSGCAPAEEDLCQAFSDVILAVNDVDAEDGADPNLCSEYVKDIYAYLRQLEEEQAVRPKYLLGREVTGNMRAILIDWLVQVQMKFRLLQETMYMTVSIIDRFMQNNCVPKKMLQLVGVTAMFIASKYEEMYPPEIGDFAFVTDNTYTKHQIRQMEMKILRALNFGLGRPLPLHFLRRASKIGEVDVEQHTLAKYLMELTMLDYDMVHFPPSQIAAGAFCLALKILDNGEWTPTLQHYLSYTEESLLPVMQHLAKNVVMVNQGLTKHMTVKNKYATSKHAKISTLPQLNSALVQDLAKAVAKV

Take `Cc1cccc(-c2cc(C(C)(C)O)nn2C)c1CNc1nc(N2CCC(N)CC2)nc2c(C(C)C)cnn12` [Compound 231]: the 50% inhibitory concentration (IC50) in test [1] (setting [9]) was over 1 µM; in test [2] (setting [10]), over 1 µM; in test [3] (setting [11]) it was over 1 µM; in test [4] (setting [12]), under 0.1 µM; in test [5], under 1 µM; in test [6], under 1 µM. Further, the IC50 in test [7] is under 1 µM; in test [8] it was at most 1 µM. The “CDK1/CDK7: Selectivity of CDK7 inhibition over CDK1 inhibition” value in test [4] (CDK7 over CDK1) is “A (A=greater than 200 fold)”. For the same compound, the “CDK2/CDK7: Selectivity of CDK7 inhibition over CDK2 inhibition” value in test [4] (CDK7 over CDK2) is on record as “A (A=greater than 200 fold)”. Further, in test [4] (CDK7 over CDK5), the “CDK5/CDK7: Selectivity of CDK7 inhibition over CDK5 inhibition” value was “A (A=greater than 200 fold)”.

`CC(C)c1cnn2c(NCc3c(Cl)cccc3-n3ccc(C(C)(C)O)n3)nc(N3CCC(C)(N)CC3)nc12` [Compound 246]: the IC50 in test [1] (setting [9]) was over 1 µM; in test [2] (setting [10]), over 1 µM; in test [3] (setting [11]), over 1 µM; in test [4] (setting [12]) it was under 0.1 µM; in test [6] it was under 1 µM; in test [7] it was under 1 µM. Besides, in test [8], the 50% inhibitory concentration (IC50) was at most 1 µM. Moreover, the “CDK1/CDK7: Selectivity of CDK7 inhibition over CDK1 inhibition” value in test [4] (CDK7 over CDK1) is reported as “A (A=greater than 200 fold)”. The “CDK2/CDK7: Selectivity of CDK7 inhibition over CDK2 inhibition” value in test [4] (CDK7 over CDK2) is listed as “A (A=greater than 200 fold)”. Besides, the “CDK5/CDK7: Selectivity of CDK7 inhibition over CDK5 inhibition” value in test [4] (CDK7 over CDK5) is given as “A (A=greater than 200 fold)”.

For `CC(C)c1cnn2c(NCc3c(Cl)cccc3N3CC[C@@H](C(C)(C)O)C3)nc(N3CCC(N)CC3)nc12` [Compound 254], the 50% inhibitory concentration (IC50) was over 1 µM in test [1] (setting [13]); over 1 µM in test [2] (setting [14]); 0.1 to 1 µM in test [3] (setting [15]); under 0.1 µM in test [4] (setting [16]); under 1 µM in test [6]; under 1 µM in test [7]. Moreover, the IC50 in test [8] is at most 1 µM. Besides, the “CDK1/CDK7: Selectivity of CDK7 inhibition over CDK1 inhibition” value in test [4] (CDK1/CDK7) is recorded as “A (A=greater than 200 fold)”. Besides, in test [4] (CDK2/CDK7), the “CDK2/CDK7: Selectivity of CDK7 inhibition over CDK2 inhibition” value is recorded as “B (B=less than 200 fold, but greater than 20 fold)”. The “CDK5/CDK7: Selectivity of CDK7 inhibition over CDK5 inhibition” value in test [4] (CDK5/CDK7) is on record as “B (B=less than 200 fold, but greater than 20 fold)”.

Take `CC(C)c1cnn2c(NCc3ccccc3-c3ccc4ccccc4n3)nc(N3CCOCC3)nc12` [Compound 268]: the IC50 in test [1] (setting [13]) is over 1 µM; in test [2] (setting [14]), over 1 µM; in test [3] (setting [15]), over 1 µM; in test [4] (setting [16]), under 0.1 µM; in test [6] it was under 1 µM; in test [7] it was over 10 µM. For the same compound, the half-maximal inhibitory concentration (IC50) in test [8] lay in the range of 1 to 10 µM. In addition, the “CDK1/CDK7: Selectivity of CDK7 inhibition over CDK1 inhibition” value in test [4] (CDK1/CDK7) is on record as “A (A=greater than 200 fold)”. In addition, the “CDK2/CDK7: Selectivity of CDK7 inhibition over CDK2 inhibition” value in test [4] (CDK2/CDK7) is “A (A=greater than 200 fold)”. Further, in test [4] (CDK5/CDK7), the “CDK5/CDK7: Selectivity of CDK7 inhibition over CDK5 inhibition” value is reported as “A (A=greater than 200 fold)”.

Turning to `CCC(O)(CC)c1ccn(-c2cccc(Cl)c2CNc2nc(N3CCC(N)CC3)nc3c(C(C)C)cnn23)n1` [Compound 253], the half-inhibitory concentration (IC50) was over 1 µM in test [1] (setting [13]); over 1 µM in test [2] (setting [14]); over 1 µM in test [3] (setting [15]); 0.1 to 1 µM in test [4] (setting [16]); 1 to 10 µM in test [6]; 1 to 10 µM in test [7]. In addition, the IC50 in test [8] is 1 to 10 µM. For the same compound, in test [4] (CDK1/CDK7), the “CDK1/CDK7: Selectivity of CDK7 inhibition over CDK1 inhibition” value is listed as “B (B=less than 200 fold, but greater than 20 fold)”. In addition, the “CDK2/CDK7: Selectivity of CDK7 inhibition over CDK2 inhibition” value in test [4] (CDK2/CDK7) is listed as “B (B=less than 200 fold, but greater than 20 fold)”. The “CDK5/CDK7: Selectivity of CDK7 inhibition over CDK5 inhibition” value in test [4] (CDK5/CDK7) was “B (B=less than 200 fold, but greater than 20 fold)”.

For `CC(C)c1cnn2c(NCc3c(Cl)cccc3-c3ccc4ccccc4n3)nc(N3CCCC[C@H]3CO)nc12` [Compound 264], the IC50 is over 1 µM in test [1] (setting [13]); over 1 µM in test [2] (setting [14]); over 1 µM in test [3] (setting [15]); 0.1 to 1 µM in test [4] (setting [16]); over 10 µM in test [6]; over 10 µM in test [7]. In test [8], the IC50 is over 10 µM. Also, the “CDK1/CDK7: Selectivity of CDK7 inhibition over CDK1 inhibition” value in test [4] (CDK1/CDK7) was “B (B=less than 200 fold, but greater than 20 fold)”. Further, in test [4] (CDK2/CDK7), the “CDK2/CDK7: Selectivity of CDK7 inhibition over CDK2 inhibition” value is given as “B (B=less than 200 fold, but greater than 20 fold)”. The “CDK5/CDK7: Selectivity of CDK7 inhibition over CDK5 inhibition” value in test [4] (CDK5/CDK7) is “B (B=less than 200 fold, but greater than 20 fold)”.
